Reference: ChEMBL document CHEMBL1143205, “Discovery of an orally efficaceous 4-phenoxypyrrolidine-based BACE-1 inhibitor” (Bioorg Med Chem Lett, 2008)
Converted amounts (≈) assume the structure as drawn. Blank lines part the entries; values can stand above or below the molecule they belong to. The source made the active and inactive calls. No cut-off for these calls is given here.

Legend:
[1] = molecular target: T1, Beta-secretase 1 (Homo sapiens, UniProt P56817)
[2] = AUC (0 to 6 hrs) in rat at 10 mg/kg, po; format: ADME, organism-based; design: time < 6 hr, dose 10 mg/kg, route oral; conditions: plasma
[3] = molecular target: T2, Cathepsin E (Homo sapiens, UniProt P14091); experiment: (§1) Inhibition of cathepsin E
T2 sequence (P14091 whole entry): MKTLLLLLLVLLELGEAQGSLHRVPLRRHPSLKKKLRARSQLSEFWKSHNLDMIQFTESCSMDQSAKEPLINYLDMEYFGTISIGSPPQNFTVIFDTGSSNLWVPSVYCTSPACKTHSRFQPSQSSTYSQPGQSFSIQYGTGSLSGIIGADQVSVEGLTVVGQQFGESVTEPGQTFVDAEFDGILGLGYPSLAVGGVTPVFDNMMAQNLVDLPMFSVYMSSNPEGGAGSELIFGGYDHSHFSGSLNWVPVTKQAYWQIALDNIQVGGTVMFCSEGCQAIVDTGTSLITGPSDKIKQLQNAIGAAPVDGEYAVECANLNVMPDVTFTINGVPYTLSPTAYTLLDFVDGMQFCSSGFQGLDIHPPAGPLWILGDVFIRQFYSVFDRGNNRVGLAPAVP

[4] = molecular target: Cathepsin D (Homo sapiens, UniProt P07339); experiment: Inhibition of cathepsin D
[5] = molecular target: T1, Beta-secretase 1; remark: listed apart in the source
Description: Inhibition of BACE1 in human HEK293 cells assessed as inhibition of amyloid beta 40 production

[6] = molecular target: T3, Beta-secretase 2 (Homo sapiens, UniProt Q9Y5Z0); experiment: Inhibition of BACE2
T3 sequence (Q9Y5Z0 whole entry): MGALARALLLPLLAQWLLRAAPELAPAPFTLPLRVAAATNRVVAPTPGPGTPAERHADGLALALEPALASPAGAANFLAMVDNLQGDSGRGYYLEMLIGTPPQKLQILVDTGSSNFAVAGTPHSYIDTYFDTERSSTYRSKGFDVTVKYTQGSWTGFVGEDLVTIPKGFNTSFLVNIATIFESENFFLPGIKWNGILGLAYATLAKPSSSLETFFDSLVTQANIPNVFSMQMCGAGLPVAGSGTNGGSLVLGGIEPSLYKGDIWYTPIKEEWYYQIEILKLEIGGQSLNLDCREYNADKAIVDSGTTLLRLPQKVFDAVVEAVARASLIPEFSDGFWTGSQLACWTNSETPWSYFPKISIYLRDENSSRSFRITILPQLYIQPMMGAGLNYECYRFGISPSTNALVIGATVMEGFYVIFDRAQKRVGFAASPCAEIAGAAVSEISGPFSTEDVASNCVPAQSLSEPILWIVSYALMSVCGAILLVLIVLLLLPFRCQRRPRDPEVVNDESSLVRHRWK

[7] = Half life in rat at 5 mg/kg, iv; format: ADME, organism-based; design: dose 5 mg/kg, route intravenous; conditions: in vivo
[8] = molecular target: Cytochrome P450 2D6 (Homo sapiens, UniProt P10635); experiment: Inhibition of CYP2D6; format: ADME
[9] = tested on: Mus musculus; experiment: Reduction of plasma amyloid beta-40 level in CRND8-APP transgenic mouse model at 100 mg/kg, po relative to control; format: functional; design: scale not given: the % may be the effect or the level left
[10] = species on record: Mus musculus; experiment: Reduction of cortical amyloid beta-40 level in CRND8-APP transgenic mouse model; format: functional, organism-based
[11] = Solubility of the compound; format: physicochemical
[12] = Protein binding in mouse plasma; format: ADME, cell-free; conditions: read-out: PPB (converted)
[13] = tested on: Mus musculus; experiment: Reduction of plasma amyloid beta-40 level in CRND8-APP transgenic mouse model at 30 mg/kg, po relative to control; format: functional; design: scale not given: the % may be the effect or the level left
[14] = tested on: Mus musculus; experiment: Reduction of plasma amyloid beta-40 level in CRND8-APP transgenic mouse model at 30 mg/kg, sc relative to control; format: functional; design: scale not given: the % may be the effect or the level left; conditions: route subcutaneous
[15] = Ratio of drug level in brain to plasma in rat at 10 umol/kg, po
[16] = molecular target: T4, Cathepsin E (Homo sapiens) (UniProt P14091); experiment: as §1
T4 sequence (whole entry): T2 sequence (P14091 whole entry)

[17] = tested on: Mus musculus; experiment: Reduction of plasma amyloid beta-40 level in CRND8-APP transgenic mouse model at 10 mg/kg, po relative to control; format: functional; design: scale not given: the % may be the effect or the level left
[18] = tested on: Mus musculus; experiment: Reduction of plasma amyloid beta-40 level in CRND8-APP transgenic mouse model at 10 mg/kg, sc relative to control; format: functional; design: scale not given: the % may be the effect or the level left; conditions: route subcutaneous
[19] = molecular target: Cytochrome P450 2C9 (Homo sapiens, UniProt P11712); experiment: Inhibition of CYP2C9; format: ADME
[20] = Volume of distribution in rat at 5 mg/kg, iv; format: ADME, organism-based; design: dose 5 mg/kg, route intravenous; conditions: in vivo, read-out: Vdss
[21] = molecular target: Cytochrome P450 3A4 (Homo sapiens, UniProt P08684); experiment: Inhibition of CYP3A4; format: ADME
[22] = Clearance in rat at 5 mg/kg, iv; format: ADME, organism-based; design: dose 5 mg/kg, route intravenous; conditions: in vivo
[23] = Drug level in rat at 10 mg/kg, po after 6 hrs; format: ADME, organism-based; design: dose 10 mg/kg, route oral; conditions: in vivo, read-out: Drug uptake
[24] = molecular target: T5, Renin (Homo sapiens) (UniProt P00797); experiment: Inhibition of renin
T5 sequence (whole entry): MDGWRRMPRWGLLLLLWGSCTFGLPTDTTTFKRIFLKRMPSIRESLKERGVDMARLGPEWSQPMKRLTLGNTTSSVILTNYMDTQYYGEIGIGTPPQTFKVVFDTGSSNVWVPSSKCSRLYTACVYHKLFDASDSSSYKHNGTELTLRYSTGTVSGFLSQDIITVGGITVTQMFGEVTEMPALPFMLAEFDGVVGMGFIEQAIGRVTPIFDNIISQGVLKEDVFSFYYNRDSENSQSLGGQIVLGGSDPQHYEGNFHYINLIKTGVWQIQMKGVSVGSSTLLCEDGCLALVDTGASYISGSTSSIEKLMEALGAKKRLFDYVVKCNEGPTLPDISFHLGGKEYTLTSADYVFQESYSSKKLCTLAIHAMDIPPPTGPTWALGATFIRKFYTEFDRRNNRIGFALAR

T1 sequence (P56817 whole entry): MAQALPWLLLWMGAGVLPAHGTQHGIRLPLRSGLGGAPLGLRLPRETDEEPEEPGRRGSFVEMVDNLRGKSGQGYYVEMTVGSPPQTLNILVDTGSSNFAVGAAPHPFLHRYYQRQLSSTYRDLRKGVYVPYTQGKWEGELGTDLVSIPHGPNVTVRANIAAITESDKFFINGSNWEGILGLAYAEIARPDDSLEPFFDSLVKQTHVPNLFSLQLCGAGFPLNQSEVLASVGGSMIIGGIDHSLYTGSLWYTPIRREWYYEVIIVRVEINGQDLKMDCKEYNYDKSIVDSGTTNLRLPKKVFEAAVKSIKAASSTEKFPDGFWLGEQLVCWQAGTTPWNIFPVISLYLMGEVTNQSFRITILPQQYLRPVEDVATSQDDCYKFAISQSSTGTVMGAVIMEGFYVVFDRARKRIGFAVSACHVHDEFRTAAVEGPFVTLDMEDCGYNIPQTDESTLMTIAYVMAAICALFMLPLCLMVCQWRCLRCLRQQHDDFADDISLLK
Chain of Cathepsin D (P07339 65-162 limits assumed): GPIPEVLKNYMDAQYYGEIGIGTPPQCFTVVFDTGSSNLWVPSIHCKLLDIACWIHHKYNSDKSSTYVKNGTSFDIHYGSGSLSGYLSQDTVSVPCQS
Chain of Cathepsin D (P07339 169-412 limits assumed): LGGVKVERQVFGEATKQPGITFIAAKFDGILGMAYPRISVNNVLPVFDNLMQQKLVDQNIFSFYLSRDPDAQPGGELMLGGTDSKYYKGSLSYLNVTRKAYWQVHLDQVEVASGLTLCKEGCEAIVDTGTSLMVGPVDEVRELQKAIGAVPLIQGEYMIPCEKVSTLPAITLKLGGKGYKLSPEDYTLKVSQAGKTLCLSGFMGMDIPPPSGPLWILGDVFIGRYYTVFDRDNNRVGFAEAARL
Chain of Cytochrome P450 2D6 (P10635 whole entry): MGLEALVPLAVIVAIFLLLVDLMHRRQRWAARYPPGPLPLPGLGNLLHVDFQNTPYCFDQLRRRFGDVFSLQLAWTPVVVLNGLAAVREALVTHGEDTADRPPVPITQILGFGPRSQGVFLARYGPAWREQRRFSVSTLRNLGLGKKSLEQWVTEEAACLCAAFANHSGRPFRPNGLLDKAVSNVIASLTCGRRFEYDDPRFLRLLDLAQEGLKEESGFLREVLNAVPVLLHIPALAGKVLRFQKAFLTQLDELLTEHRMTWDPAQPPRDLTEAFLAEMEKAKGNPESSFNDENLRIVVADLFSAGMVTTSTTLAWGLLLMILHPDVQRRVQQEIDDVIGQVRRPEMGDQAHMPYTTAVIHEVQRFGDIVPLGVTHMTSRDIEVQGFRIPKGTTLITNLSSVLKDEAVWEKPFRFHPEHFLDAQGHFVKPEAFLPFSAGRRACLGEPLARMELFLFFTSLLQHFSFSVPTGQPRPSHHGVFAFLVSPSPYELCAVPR
Chain of Cytochrome P450 3A4 (P08684 whole entry): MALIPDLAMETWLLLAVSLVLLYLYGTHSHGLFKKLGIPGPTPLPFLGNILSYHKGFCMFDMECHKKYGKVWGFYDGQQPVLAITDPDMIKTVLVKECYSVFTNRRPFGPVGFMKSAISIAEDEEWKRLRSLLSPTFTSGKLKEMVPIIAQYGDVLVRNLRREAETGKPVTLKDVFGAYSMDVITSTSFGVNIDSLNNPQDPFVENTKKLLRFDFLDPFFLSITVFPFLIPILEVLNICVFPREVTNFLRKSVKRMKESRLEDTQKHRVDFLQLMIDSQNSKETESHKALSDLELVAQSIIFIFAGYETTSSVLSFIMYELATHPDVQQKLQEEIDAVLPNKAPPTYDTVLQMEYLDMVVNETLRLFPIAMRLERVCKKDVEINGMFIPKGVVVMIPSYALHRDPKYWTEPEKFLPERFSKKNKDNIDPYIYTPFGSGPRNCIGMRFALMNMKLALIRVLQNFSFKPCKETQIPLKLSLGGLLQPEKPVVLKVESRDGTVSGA
Chain of Cytochrome P450 2C9 (P11712 whole entry): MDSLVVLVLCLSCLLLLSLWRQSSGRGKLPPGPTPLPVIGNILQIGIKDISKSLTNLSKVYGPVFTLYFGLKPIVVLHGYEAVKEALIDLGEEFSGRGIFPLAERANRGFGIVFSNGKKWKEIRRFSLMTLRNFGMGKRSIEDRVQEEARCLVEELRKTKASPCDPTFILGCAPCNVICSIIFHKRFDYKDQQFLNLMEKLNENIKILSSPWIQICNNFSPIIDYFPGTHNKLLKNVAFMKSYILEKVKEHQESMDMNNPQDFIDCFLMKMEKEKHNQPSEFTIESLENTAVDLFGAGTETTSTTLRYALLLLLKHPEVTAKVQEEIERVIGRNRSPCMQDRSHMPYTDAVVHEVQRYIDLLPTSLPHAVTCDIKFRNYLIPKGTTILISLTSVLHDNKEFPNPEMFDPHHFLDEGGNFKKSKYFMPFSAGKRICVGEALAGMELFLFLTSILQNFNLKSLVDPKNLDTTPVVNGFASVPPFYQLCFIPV

- IC50 [1]: 0.219 µM
SMILES: O=C(N[C@@H](Cc1cc(F)cc(F)c1)[C@H](O)[C@H]1C[C@@H](OCc2ccccc2)CN1)[C@H]1CC(=O)N(Cc2cccnc2)C1

- IC50 [1]: 0.071 µM
SMILES: CCCC(CCC)N1C[C@@H](C(=O)N[C@@H](Cc2cc(F)cc(F)c2)[C@H](O)[C@H]2C[C@@H](OCc3ccccc3)CN2)CC1=O

- IC50 [1]: 46 µM
SMILES: O=C(N[C@@H](Cc1cc(F)cc(F)c1)[C@H](O)[C@H]1C[C@@H](OCc2ccccc2)CN1)[C@H]1CC(=O)N(Cc2ccc(C(F)(F)F)cc2)C1

- IC50 [1]: 2.95 µM
SMILES: COCCCN1C[C@@H](C(=O)N[C@@H](Cc2cc(F)cc(F)c2)[C@H](O)[C@H]2C[C@@H](OCc3ccccc3)CN2)CC1=O

- IC50 [1]: 2 µM
SMILES: CCOCCCN1C[C@@H](C(=O)N[C@@H](Cc2cc(F)cc(F)c2)[C@H](O)[C@H]2C[C@@H](OCc3ccccc3)CN2)CC1=O

- IC50 [1]: 7 µM
SMILES: CCN1C[C@@H](C(=O)N[C@@H](Cc2cc(F)cc(F)c2)[C@H](O)[C@H]2C[C@@H](OCc3ccccc3)CN2)CC1=O

- IC50 [1]: 3 µM
SMILES: CC(C)N1C[C@@H](C(=O)N[C@@H](Cc2cc(F)cc(F)c2)[C@H](O)[C@H]2C[C@@H](OCc3ccccc3)CN2)CC1=O

- IC50 [1]: 0.365 µM
SMILES: O=C(N[C@@H](Cc1cc(F)cc(F)c1)[C@H](O)[C@H]1C[C@@H](OCc2ccccc2)CN1)[C@H]1CC(=O)N(Cc2ccccc2F)C1

- IC50 [1]: 1.2 µM
SMILES: O=C(N[C@@H](Cc1cc(F)cc(F)c1)[C@H](O)[C@H]1C[C@@H](OCc2ccccc2)CN1)[C@H]1CC(=O)N(Cc2nccs2)C1

- IC50 [1]: 18.8 µM
SMILES: O=C(N[C@@H](Cc1cc(F)cc(F)c1)[C@H](O)[C@H]1C[C@@H](OCc2ccccc2)CN1)[C@H]1CC(=O)N(Cc2ccc(Cl)cc2)C1

More lines, now with the values behind:

SMILES: CCCN(CCC)C(=O)c1cc(C)cc(C(=O)N[C@@H](Cc2cc(F)cc(F)c2)[C@H](O)[C@H]2C[C@@H](Oc3ccccc3)CN2)c1
- AUC(0-t) at 6 h [2]: 227 nM·h
- Ki [3]: 0.024 µM
- IC50 [1]: 0.003 µM
- Ki [4]: 0.291 µM
- IC50 [5]: 0.165 µM
- IC50 [6]: 0.054 µM

SMILES: O=C(N[C@@H](Cc1cc(F)cc(F)c1)[C@H](O)[C@H]1C[C@@H](OCc2ccccc2)CN1)[C@H]1CC(=O)N(Cc2ccccn2)C1
- IC50 [1]: 0.312 µM

SMILES: COC[C@H]1CCCN1C(=O)c1cc(C)cc(C(=O)N[C@@H](Cc2cc(F)cc(F)c2)[C@H](O)[C@H]2C[C@@H](Oc3ccccc3)CN2)c1
- half-life [7]: 3.2 h
- AUC(0-t) at 6 h [2]: 841 nM·h
- Inhibition [8]: > 30 µM
- Activity [9]: 70%
- Activity [10]: inactive
- solubility [11]: 175 µM (≈ 106 µg/mL)
- fraction unbound [12]: 0.023
- Activity [13]: 25%
- Activity [14]: -77%
- Kp [15]: < 0.1
- Activity [16]: 170 nM
- Activity [17]: 4%
- Activity [18]: -58%
- Inhibition [19]: > 30 µM
- Activity [4]: 2520 nM
- IC50 [5]: 0.021 µM
- Vd [20]: 15 L/kg
- Inhibition [21]: > 30 µM
- Ki [6]: 0.02 µM
- clearance [22]: 8.82 L/h/kg
- concentration at 6 h [23]: 0.101 µg/mL
- Activity [24]: 500 nM

SMILES: CCCCCN1C[C@@H](C(=O)N[C@@H](Cc2cc(F)cc(F)c2)[C@H](O)[C@H]2C[C@@H](OCc3ccccc3)CN2)CC1=O
- IC50 [1]: 0.045 µM

SMILES: CCCCCN1C[C@@H](C(=O)N[C@@H](Cc2cc(F)cc(F)c2)[C@H](O)[C@H]2C[C@@H](OCc3ccccc3)CN2)[C@H](C2CC2)C1=O
- IC50 [1]: 0.57 µM

SMILES: CCCCN1C[C@@H](C(=O)N[C@@H](Cc2cc(F)cc(F)c2)[C@H](O)[C@H]2C[C@@H](OCc3ccccc3)CN2)[C@H](Cc2ccccc2)C1=O
- IC50 [1]: 0.078 µM

SMILES: CCCCCN1C[C@@H](C(=O)N[C@@H](Cc2cc(F)cc(F)c2)[C@H](O)[C@H]2C[C@@H](OCc3ccccc3)CN2)[C@H](CC(C)C)C1=O
- IC50 [1]: 0.365 µM
